In paper PMC9079923, “Trifluoromethylated proline analogues as efficient tools to enhance the hydrophobicity and to promote passive diffusion transport of the L-prolyl-L-leucyl glycinamide (PLG) tripeptide” (RSC Advances, 2018):
Residues, ends and D or L forms follow the SMILES beside them.

Experiments:
[1] = Parallel artificial membrane permeability assay (PAMPA), in vitro model of the BBB
Experimental: (§1) We then decided to evaluate the ability of our fluorinated PLG analogues 2 and 3 to cross the BBB through passive diffusion. […] The rate of permeation can be determined by the effective permeability (Pe) as well as the rate of transport values. The membrane retention value can also be obtained and reflects the strength of the interaction between the lipids that mimic the membrane and the peptide.
(§2) The buffer solution was prepared from a commercially concentrated one, supplied by pION. Following the manufacturer's instructions, system solution was adjusted to pH 7.4 using a 0.5 M NaOH solution. The compounds to be analyzed were dissolved in a mixture of buffer solution with 20% of 1-propanol used as co-solvent to ensure their solubility. The PAMPA sandwich was separated, and the donor wells were filled with 195 μL of each compound. A magnetic stirrer was placed in each well. The acceptor plate was put into the donor plate, ensuring that the underside of the membrane was in contact with the buffer. Then, 4 μL of a mixture of phospholipids from a porcine polar brain extract (20 mg mL^−1) in dodecane (composition: 12.6% phosphatidylcholine (PC), 33.1% phosphatidylethanolamine (PE), 18.5% phosphatidylserine (PS), 4.1% phosphatidylinositol (PI), 0.8% phosphatidic acid and 30.9% of other compounds) was added to the filter of each well, followed by 200 μL of buffer solution. The plate was then covered and incubated at room temperature in a saturated humidity atmosphere for 4 h under orbital agitation at 25 μm of unstirred water layer (UWL). After this period, the solution from the donor and acceptor plates was transferred to the UPLC vials. 100 μL of each acceptor and donor samples and 100 μL of t0 samples were injected into the UPLC apparatus.
(§3) Membrane retention was also calculated as the difference of product at t0 and after 4 h in the donor and acceptor compartments.

[2] = design: method as in PMID 12667689; details: cited from earlier work
[3] = PAMPA, pH 7.4
Experimental: as §1, §2, §3

[4] = Isocratic hydrophobicity index φ0 by RP-HPLC; type: physicochemical; details: RP-C18
Text: The hydrophobicity of the fluorinated analogues of PLG has then been assessed and compared to the native PLG 1 in order to investigate the specific effect imparted by the CF3 group. […] It is based on the measurement of the isocratic hydrophobicity index (φ0) which is defined as the percentage (by volume) of organic solvent required to achieve an equal distribution of compound between the polar mobile and apolar stationary phases. Thus, higher is the φ0 value, more hydrophobic is the compound. The method involves the measurement of the logarithm of retention factor k (log k) values by reversed-phase high-performance liquid chromatography (RP-HPLC) using various organic-phase concentrations in the mobile phase (in our case, the acetonitrile is used). By plotting the log k values as a function of the acetonitrile concentration, the φ0 value can be obtained from the slope and the intercept of the linear regression (φ0 = −intercept/slope). A good correlation between the φ0 and the log P values was shown.[15] The hydrophobicity index of our peptides was first measured at pH 7. […] The φ0 values were then measured at pH 2 to investigate the impact of the possible ionic form of the PLG peptides 1–3 on the hydrophobicity parameter. The lower φ0 value observed for the native PLG 1 is consistent with its expected polar ionic state (entry 1, Table 1). […] Only a slight decrease in the φ0 value is observed for the (S,S,S)-3 (entry 4, Table 1), that of the (R,S,S)-3 diastereomer remaining almost unchanged (entry 5, Table 1).
An Agilent 1200 series high-performance liquid chromatograph coupled to an ELSD detector was used. The reversed-phase HPLC measurements were carried out on a Zorbax® RX-C18 analytical column (4.6 × 250 mm, 5 μm). The mobile phase was 50 mM ammonium acetate and HPLC grade acetonitrile as organic modifier (pH 7.0) or TFA 0.1% buffer aqueous solution and 0.1% TFA HPLC grade acetonitrile (pH 2). The mobile phase flow rate was ranging from 0.1–1.0 mL min^−1. The dead time (t0) was measured by injecting sodium nitrate together with the sample at a concentration of 10 mM. The samples were dissolved at 1 mg/1 mL in water. Few drops of acetonitrile were added when the dissolution of the peptide was incomplete. The logarithm of retention factor k (log k) values were obtained according to the eqn (1):1 [drawing 1] where tR is the retention time of the compound and t0 the retention time of the unretained sodium nitrate solute.
The log k values were plotted as a function of the acetonitrile concentration. The slope (S) and the intercept (log kw) values were calculated from at least three concentrations of acetonitrile. The correlation coefficients of the linear fit were higher than 0.99. The isocratic hydrophobicity index φ0 was calculated according to the eqn (2):2 φ0 = −log kw/Swhere log kw is the log k value extrapolated to the 0% acetonitrile concentration.

[5] = pH 7.4, Effective permeability class according to the empirical BBB permeation prediction, pH 7.4, classes by ref 19
[6] = pH 7.4, Pe (× 10^6), effective permeability, pH 7.4, 4 h, 5 mM, mean ± SD
[7] = pH 7, 50 mM ammonium acetate / acetonitrile

CC(C)C[C@H](NC(=O)[C@@]1(C(F)(F)F)CCCN1)C(=O)NCC(N)=O [(R,S)-2, (R)-α-CF3-Pro-L-Leu-Gly-NH2]
Interaction with / retention in the membrane (in words) ([1]; pH 7.4, 4 h): strong interaction with the membrane
Membrane retention ([1]; pH 7.4, 4 h): 30%
Transport (%) (4 h) ([1]; pH 7.4, 4 h, 5 mM, mean ± SD): 0.65 ± 0.06%
Papp [1, 5]: < 2 ×10⁻⁶ cm/s
Papp [1, 6]: 0.31 ± 0.03 ×10⁻⁶ cm/s

CC(C)C[C@H](NC(=O)[C@]1(C(F)(F)F)CCCN1)C(=O)NCC(N)=O [(S,S)-2]
Interaction with / retention in the membrane (in words) ([1]; pH 7.4, 4 h): strong interaction with the membrane
Membrane retention ([1]; pH 7.4, 4 h): 50%
Transport (%) (4 h) ([1]; pH 7.4, 4 h, 5 mM, mean ± SD): 5.34 ± 0.08%
Papp [1, 5]: 2 to 4 ×10⁻⁶ cm/s
Papp [1, 6]: 2.68 ± 0.04 ×10⁻⁶ cm/s

CC(C)C[C@H](NC(=O)[C@@H]1CCCN1)C(=O)NCC(N)=O [compound 1, L-prolyl-L-leucyl glycinamide] (H-Pro-Leu-Gly-NH2)
Crossing of the blood–brain barrier (BBB) [2]: known to cross the blood–brain barrier
Permeability / ability to cross the membrane by passive diffusion (in words) [3]: very negligible
φ0 (isocratic hydrophobicity index) ([4]; pH 2, TFA 0.1% / acetonitrile): 9,2
φ0 (isocratic hydrophobicity index) [4, 7]: 12,3
Interaction with / retention in the membrane (in words) ([1]; pH 7.4, 4 h): no peptide was retained in the membrane

(2R,4S)-Ser(Ψ^CF^3,HPro)-L-Leu-Gly-NH2 [(R,S,S)-3]
φ0 (isocratic hydrophobicity index) ([4]; pH 2, TFA 0.1% / acetonitrile): 30,4
φ0 (isocratic hydrophobicity index) [4, 7]: 30,8

(2S,4S)-Ser(Ψ^CF^3,HPro)-L-Leu-Gly-NH2 [(S,S,S)-3]
φ0 (isocratic hydrophobicity index) ([4]; pH 2, TFA 0.1% / acetonitrile): 25,3
φ0 (isocratic hydrophobicity index) [4, 7]: 27,5
